In patent publication US12398154B2, “Azaquinazoline pan-KRas inhibitors” (Mirati Therapeutics, Inc., priority 2020, dated 2025):

How the values were obtained:
KRas G12R = KRas G12R (Homo sapiens, UniProt P01116, G12R); assay: biochemical;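 also: TR-FRET displacement assay of compound binding to KRas, read after one hour at room temperature, potency from a four-parameter fit of percent-of-control values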
Method: (§2) The ability of a compound to bind to KRas was measured using a TR-FRET displacement assay. […] After a 60-minute incubation at room temperature, the reaction was measured using a BMG LABTECH CLARIO star Plus via TR-FRET. […] The POC values were fit to a 4-parameter IC50 equation and the IC50 value reported.

KRas G12V = KRas G12V (Homo sapiens, UniProt P01116, G12V); assay: biochemical;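 also: KRas binding measured by TR-FRET displacement at room temperature, IC50 fitted from percent of control values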
Method: as §2

KRas G12D = KRas G12D (Homo sapiens, UniProt P01116, G12D); assay: biochemical;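 also: TR-FRET displacement binding assay on KRas, read after a one-hour incubation at room temperature, IC50 fitted from percent-of-control values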
Method: as §2

pERK in ASPC1 cells = assay: Inhibition of KRas phosphorylation of ERK (Cisbio HTRF pERK assay); details: Homo sapiens, ASPC1, read-out: Inhibition (HTRF IC50) of KRas-mediated Phosphorylation of ERK, AsPC-1
[1] = system: phospho-ERK in A549 (G12S) cells; assay: Inhibition of KRas-mediated phosphorylation of ERK (in-cell western); type: cell-based; details: Homo sapiens, 3 hours compound, phospho-ERK normalized to GAPDH
In short: (§1)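 Following fixation in formaldehyde and permeabilization in cold methanol, ERK phosphorylated at Thr202/Tyr204 was quantified against GAPDH.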

[2] = system: phospho-ERK in NCI-H460 (Q61H) cells; assay: as above; type: cell-based; details: Homo sapiens, NCI-H460, 3 h, 3 hours compound, phospho-ERK normalized to GAPDH
In short: as §1

[3] = system: phospho-ERK in AsPC-1 (G12D) cells; assay: as above; type: cell-based; details: Homo sapiens, ASPC1, 3 h, 3 hours compound, phospho-ERK normalized to GAPDH
In short: as §1

[4] = system: phospho-ERK in HCT116 (G13D) cells; assay: as above; type: cell-based; details: Homo sapiens, HCT-116, 3 hours compound, phospho-ERK normalized to GAPDH
In short: as §1

[5] = system: phospho-ERK in NCI-H358 (G12C) cells; assay: as above; type: cell-based; details: Homo sapiens, 3 hours compound, phospho-ERK normalized to GAPDH
In short: as §1

[6] = system: phospho-ERK in PSN-1 (G12R) cells; assay: as above; type: cell-based; details: Homo sapiens, PSN1, 3 hours compound, phospho-ERK normalized to GAPDH
In short: as §1

[7] = system: phospho-ERK in MKN1 (WTdep) cells; assay: as above; type: cell-based; details: Homo sapiens, MKN-1, 3 hours compound, phospho-ERK normalized to GAPDH
In short: as §1

[8] = system: phospho-ERK in NCI-H727 (G12V) cells; assay: as above; type: cell-based; details: Homo sapiens, NCI-H727, 3 h, 3 hours compound, phospho-ERK normalized to GAPDH
In short: as §1

pERK in H727 cells = assay: Inhibition of KRas phosphorylation of ERK (Cisbio HTRF pERK assay); details: Homo sapiens, NCI-H727, read-out: Inhibition (HTRF IC50) of KRas-mediated Phosphorylation of ERK, H727
pERK in HCT116 cells = assay: as above; details: Homo sapiens, HCT-116, read-out: Inhibition (HTRF IC50) of KRas-mediated Phosphorylation of ERK, HCT116
KRas Q61H = target: T1, KRas Q61H (Homo sapiens, UniProt P01116, Q61H); assay: KRas binding assay (TR-FRET displacement);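 also: TR-FRET signal read after one hour at room temperature, IC50 derived by four-parameter fitting of percent-of-control values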
T1 construct: Biotinylated KRas (corresponding to amino acids 1-169, produced at Accelegan Inc.); biotin (biotinylated); purchased Accelegan Inc
Method: as §2

KRas G13D = target: T2, KRas G13D (Homo sapiens, UniProt P01116, G13D); assay: KRas binding assay (TR-FRET displacement);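 also: One-hour room temperature incubation before TR-FRET reading, IC50 from a four-parameter curve fit to percent-of-control data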
T2 construct: Biotinylated KRas (corresponding to amino acids 1-169, produced at Accelegan Inc.); biotin (biotinylated); purchased Accelegan Inc
Method: as §2

KRas G12C = KRas G12C (Homo sapiens, UniProt P01116, G12C); assay: biochemical;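 also: binding to KRas assessed by TR-FRET displacement after one hour incubation at room temperature, potency fitted from percent-of-control values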
Method: as §2

KRas G12A = KRas G12A (Homo sapiens, UniProt P01116, G12A); assay: biochemical;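 also: binding to KRas measured by TR-FRET displacement after one hour at room temperature, IC50 from a four-parameter fit of percent-of-control values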
Method: as §2

KRas WT = KRas WT (Homo sapiens, UniProt P01116); assay: biochemical;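 also: binding to KRas read as TR-FRET displacement after a one-hour room-temperature incubation, IC50 derived from percent-of-control values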
Method: as §2

KRas G12S = KRas G12S (Homo sapiens, UniProt P01116, G12S); assay: biochemical;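 also: TR-FRET displacement binding to KRas, read after one hour incubation at room temperature, IC50 from four-parameter fit of percent of control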
Method: as §2

pERK in PSN1 cells = assay: Inhibition of KRas phosphorylation of ERK (Cisbio HTRF pERK assay); details: Homo sapiens, PSN1, 3 h, read-out: Inhibition (HTRF IC50) of KRas-mediated Phosphorylation of ERK, PSN1
pERK in MKN1 cells = assay: as above; details: Homo sapiens, MKN-1, 3 h, read-out: Inhibition (HTRF IC50) of KRas-mediated Phosphorylation of ERK, MKN1
Method: To harvest cells from flask using 0.05% Trypsin/EDTA solution. Add 10 mL of media to stop trypsinizing. Pipette the cells into a conical bottom 50 mL centrifuge tube and centrifuge 5 min×1000 rpm. • 2. Re-suspend the cell pellet in media, take a cell count, and then adjust the cell density using fresh media. • 3. Seed 6,000 cells into cell culture plate with 50 μL media. […] Incubate cell plate overnight in a 37° C., 5% CO2 incubator. • Compound titrations • 1. Use Tecan to complete the compound addition. Compounds start from 10 uM top, 3-fold dilution, and 10 doses. The final DMSO concentration is 0.8%. Dispensed 0.2 uM Trametinib as Min control. • 2. Incubate cell plate for 3 hrs in the incubator. • Detection with cisbio pERK HTRF kit • 1. […] At the end of the compound treatment, flick-off the media. • 3. Add 35 μL of lysis buffer per well using a Multidrop Combi. Then place on a plate agitator shaking at 300 rpm at 4° C. for 40 mins. • 4. Make up the HTRF antibody buffer. For each assay plate, mix 50 μL of d2-conjugate antibody with 950 μL of detection buffer. Similarly, mix 50 μL of Cryptate antibody with 950 μL of detection buffer. Then mix the two diluted antibodies together. • 5. Dispense 3.4 μL the antibody buffer to wells of an empty assay plate. Seal the plate and centrifuge plate 30 sec×1000 rpm. • 6. At the end of the 4° C. lysis, centrifuge the lysate plates 3 mins×1500 rpm. • 7. Use the Bravo to transfer 13.6 μL of lysate from cell culture plate to assay plate.
Then incubate assay plate for 2 hrs at room temperature. […] At the end of incubation, read plate on the Envision after centrifuging plate 30 sec× • 1000 rpm.

T1 sequence (P01116 1-169 isoform P01116-2 Q61H): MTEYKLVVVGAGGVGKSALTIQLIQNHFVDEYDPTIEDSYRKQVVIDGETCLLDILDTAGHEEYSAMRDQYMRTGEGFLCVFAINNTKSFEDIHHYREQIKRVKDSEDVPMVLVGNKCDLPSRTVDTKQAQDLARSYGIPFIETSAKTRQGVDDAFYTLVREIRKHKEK
Chain of KRas G12A (P01116 1-169 isoform P01116-2 G12A): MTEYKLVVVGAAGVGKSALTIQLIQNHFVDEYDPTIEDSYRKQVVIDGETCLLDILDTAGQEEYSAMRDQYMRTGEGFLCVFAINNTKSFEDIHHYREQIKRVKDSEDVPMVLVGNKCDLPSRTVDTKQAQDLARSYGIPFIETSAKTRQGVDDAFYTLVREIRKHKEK
Chain of KRas G12V (P01116 1-169 isoform P01116-2 G12V): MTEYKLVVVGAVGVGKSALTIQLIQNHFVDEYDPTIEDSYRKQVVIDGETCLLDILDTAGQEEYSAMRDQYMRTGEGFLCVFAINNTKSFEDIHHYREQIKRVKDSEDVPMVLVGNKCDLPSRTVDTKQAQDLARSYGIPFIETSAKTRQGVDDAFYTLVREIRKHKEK
Chain of KRas WT (P01116 1-169 isoform P01116-2): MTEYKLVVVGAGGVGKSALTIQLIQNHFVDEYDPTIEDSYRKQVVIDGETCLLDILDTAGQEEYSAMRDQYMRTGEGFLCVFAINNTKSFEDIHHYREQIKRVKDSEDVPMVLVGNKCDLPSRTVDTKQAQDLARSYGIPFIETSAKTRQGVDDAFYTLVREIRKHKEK
Chain of KRas G12S (P01116 1-169 isoform P01116-2 G12S): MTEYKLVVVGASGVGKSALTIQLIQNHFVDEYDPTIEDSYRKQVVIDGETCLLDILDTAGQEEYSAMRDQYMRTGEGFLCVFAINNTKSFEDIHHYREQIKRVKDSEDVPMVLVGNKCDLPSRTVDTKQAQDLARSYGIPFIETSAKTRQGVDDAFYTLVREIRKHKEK
Chain of KRas G12C (P01116 1-169 isoform P01116-2 G12C): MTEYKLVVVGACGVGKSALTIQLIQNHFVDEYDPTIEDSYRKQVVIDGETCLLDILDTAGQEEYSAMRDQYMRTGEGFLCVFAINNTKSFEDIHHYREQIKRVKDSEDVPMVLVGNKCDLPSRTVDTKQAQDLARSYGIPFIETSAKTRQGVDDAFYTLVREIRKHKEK
Chain of KRas G12R (P01116 1-169 isoform P01116-2 G12R): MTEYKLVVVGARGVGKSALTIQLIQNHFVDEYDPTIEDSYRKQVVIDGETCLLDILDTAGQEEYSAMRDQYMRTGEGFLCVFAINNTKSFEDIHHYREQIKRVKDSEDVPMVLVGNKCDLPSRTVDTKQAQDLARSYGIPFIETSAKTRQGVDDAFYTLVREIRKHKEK
Chain of KRas G12D (P01116 1-169 isoform P01116-2 G12D): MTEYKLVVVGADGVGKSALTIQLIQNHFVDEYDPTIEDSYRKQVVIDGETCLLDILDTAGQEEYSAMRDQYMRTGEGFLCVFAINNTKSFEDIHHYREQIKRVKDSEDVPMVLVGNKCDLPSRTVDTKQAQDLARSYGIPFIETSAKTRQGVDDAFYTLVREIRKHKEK
T2 sequence (P01116 1-169 isoform P01116-2 G13D): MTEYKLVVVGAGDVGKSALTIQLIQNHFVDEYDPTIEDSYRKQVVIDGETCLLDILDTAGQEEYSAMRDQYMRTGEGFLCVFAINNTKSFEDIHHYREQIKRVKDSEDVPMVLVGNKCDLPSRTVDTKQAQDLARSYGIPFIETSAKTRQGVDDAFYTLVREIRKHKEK

Row | SMILES | IC50 (KRas G12R) [nM] | IC50 (KRas G12V) [nM] | IC50 (KRas G12D) [nM] | IC50 (pERK in ASPC1 cells) [nM] | IC50 (pERK in H727 cells) [nM] | IC50 (KRas Q61H) [nM] | IC50 (KRas G13D) [nM] | IC50 (KRas G12C) [nM] | IC50 (KRas G12A) [nM] | IC50 (KRas WT) [nM] | IC50 (KRas G12S) [nM] | IC50 [1] [nM] | IC50 [2] [nM] | IC50 [3] [nM] | IC50 [4] [nM] | IC50 [5] [nM] | IC50 [6] [nM] | IC50 [7] [nM] | IC50 [8] [nM] | other results
1 | CC1(O)CCCN(c2nc(OCC34CCCN3CCC4)nc3c(F)c(-c4cc(O)cc(Cl)c4C4CC4)ncc23)C1 (centres unmarked) [Example 71, 1-(7-(3-chloro-2-cyclopropyl-5-hydroxyphenyl)-8-fluoro-2-((tetrahydro-1H-pyrrolizin-7a(5H)-yl)methoxy)pyrido[4,3-d]pyrimidin-4-yl)-3-methylpiperidin-3-ol] | 6 | ≤ 2 | 3 | 2100 | 1920 | – | – | – | – | – | – | ≥ 10000 | 2170 | 4730 | 1950 | 361 | ≥ 10000 | 140 | 2240 | –
2 | C#Cc1c(F)ccc2cccc(-c3ncc4c(N5CCC[C@@](C)(O)C5)nc(OC[C@@]56CCCN5C[C@H](F)C6)nc4c3F)c12 [Example 51, (R)-1-(7-(8-ethynyl-7-fluoronaphthalen-1-yl)-8-fluoro-2-(((2R,7aS)-2-fluorohexahydro-1H-pyrrolizin-7a-yl)methoxy)pyrido[4,3-d]pyrimidin-4-yl)-3-methylpiperidin-3-ol] | 69 | 35 | 21 | – | – | 50 | 36 | 35 | 36 | 32 | 38 | 2640 | ≥ 10000 | 586 | 3720 | 715 | ≥ 10000 | 873 | 7230 | –
3 | CCc1c(F)ccc2cccc(-c3ncc4c(N5CCC[C@@](C)(O)C5)nc(OCC56CCCN5CCC6)nc4c3F)c12 [Example 15] | 81 | 42 | 24 | – | – | 52 | 42 | 37 | 38 | 41 | 42 | 3640 | ≥ 10000 | 731 | 5160 | 495 | ≥ 10000 | 1260 | ≥ 10000 | –
4 | C[C@@H]1C[C@@H]1c1c(Cl)cc(O)cc1-c1ncc2c(N3CCCC(C)(O)C3)nc(OCC34CCCN3CCC4)nc2c1F (stereo partly drawn) [Example 132, 1-(7-(3-chloro-5-hydroxy-2-((1S,2R)-2-methylcyclopropyl)phenyl)-8-fluoro-2-((tetrahydro-1H-pyrrolizin-7a(5H)-yl)methoxy)pyrido[4,3-d]pyrimidin-4-yl)-3-methylpiperidin-3-ol] | 6 | 5 | 9 | 623 | 912 | – | – | – | – | – | – | ≥ 10000 | 206 | 104 | ≥ 10000 | 131 | ≥ 10000 | 27 | ≥ 10000 | –
5 | CCc1c(F)ccc2cccc(-c3ncc4c(N5CCC[C@@](C)(O)C5)nc(OC[C@@]56CCCN5C[C@H](F)C6)nc4c3F)c12 [Example 16, (R)-1-(7-(8-ethyl-7-fluoronaphthalen-1-yl)-8-fluoro-2-(((2R,7aS)-2-fluorohexahydro-1H-pyrrolizin-7a-yl)methoxy)pyrido[4,3-d]pyrimidin-4-yl)-3-methylpiperidin-3-ol] | – | – | – | – | – | – | – | – | – | – | – | 1760 | 113 | 654 | 2180 | 1180 | ≥ 10000 | 802 | ≥ 10000 | IC50 (pERK in PSN1 cells): ≥ 10000 nM; IC50 (pERK in MKN1 cells): 275 nM
6 | CCc1c(F)ccc2cc(O)cc(-c3ncc4c(NCCC(N)=O)nc(OC[C@@]56CCCN5C[C@H](F)C6)nc4c3F)c12 [Example 141] | ≤ 2 | ≤ 2 | ≤ 2 | 641 | 2130 | – | – | – | – | – | – | 875 | 1110 | 210 | ≥ 10000 | 88 | ≥ 10000 | 282 | ≥ 10000 | –

Continued, in another order:

Row | IC50 (KRas G12R) [nM] | IC50 (KRas G12V) [nM] | IC50 (KRas G12D) [nM] | IC50 (pERK in ASPC1 cells) [nM] | IC50 (pERK in H727 cells) [nM] | IC50 (KRas Q61H) [nM] | IC50 (KRas G13D) [nM] | IC50 (KRas G12C) [nM] | IC50 (KRas G12A) [nM] | IC50 (KRas WT) [nM] | IC50 (KRas G12S) [nM] | SMILES | IC50 [1] [nM] | IC50 [2] [nM] | IC50 [3] [nM] | IC50 [4] [nM] | IC50 [5] [nM] | IC50 [6] [nM] | IC50 [7] [nM] | IC50 [8] [nM] | other results
7 | ≤ 2 | ≤ 2 | ≤ 2 | 144 | 246 | – | – | – | – | – | – | CCc1c(F)ccc2cc(O)cc(-c3ncc4c(N5CCCC6(CNC(=O)N6)C5)nc(OC[C@@]56CCCN5C[C@H](F)C6)nc4c3F)c12 (some centres unmarked) [Example 133] | 55 | 49 | 156 | 650 | 41 | ≥ 10000 | 171 | 612 | IC50 (pERK in HCT116 cells): 360 nM
8 | ≤ 2 | ≤ 2 | ≤ 2 | – | – | ≤ 2 | ≤ 2 | ≤ 2 | ≤ 2 | ≤ 2 | ≤ 2 | CCc1c(F)ccc2cc(O)cc(-c3ncc4c(N5CCC[C@@](C)(O)C5)nc(OCC56CCCN5CCC6)nc4c3F)c12 [Example 27] | 300 | 33 | 45 | 88 | 22 | 2920 | 20 | 232 | –
9 | ≤ 2 | ≤ 2 | ≤ 2 | – | – | – | – | ≤ 2 | ≤ 2 | ≤ 2 | ≤ 2 | C#Cc1c(F)ccc2cc(O)cc(-c3ncc4c(N5CCCC6(CNC(=O)C6)C5)nc(OC[C@@]56CCCN5C[C@H](F)C6)nc4c3F)c12 (some centres unmarked) [Example 24] | ≥ 10000 | 2820 | 1680 | 1370 | 454 | 3690 | 406 | 4720 | –
10 | 109 | 52 | 29 | – | – | 80 | 61 | 51 | 58 | 51 | 58 | C#Cc1c(F)ccc2cccc(-c3ncc4c(N5CCC[C@@](C)(O)C5)nc(OCC56CCCN5CCC6)nc4c3F)c12 [Example 14, (R)-1-(7-(8-ethynyl-7-fluoronaphthalen-1-yl)-8-fluoro-2-((hexahydro-1H-pyrrolizin-7a-yl)methoxy)pyrido[4,3-d]pyrimidin-4-yl)-3-methylpiperidin-3-ol] | ≥ 10000 | ≥ 10000 | 847 | 1590 | 725 | ≥ 10000 | 1380 | 4580 | –
